Experimental data taken from US10342766B2, “6-shogaol derivatives and activities thereof” (North Carolina Agricultural and Technical State University, priority 2017, dated 2019).
Values joined by “and” are separate entries in the source; they are usually repeats but may differ in a detail not shown here. Equal entries are not always repeated.

Tests used:
Nrf2 = Nrf2 reporter activity by Tg(gstp1:GFP) fluorescence in transgenic zebrafish embryos; format: in vivo; conditions: 24-hour treatment from 1 dpf to 2 dpf; for Ratio/CTL, Tg(gstp1:GFP) fluorescence signal: 5 μM, olfactory epithelia, relative to vehicle (DMSO = 1.00)
Method: Zebrafish AB transgenic strains Tg(gstp1:GFP) were maintained in a Pentair Aquatic Ecosystem (Apopka, Fla., United States of America) fish housing unit with 14 h light/10 h dark cycle (see Tsujita, T., Li, L., Nakajima, H., Iwamoto, N., Nakajima-Takagi, Y., Ohashi, K., Kawakami, K., Kumagai, Y., Freeman, B. A., Yamamoto, M., and Kobayashi, M. (2011) “Nitro-fatty acids and cyclopentenone prostaglandins share strategies to activate the Keap1-Nrf2 system: a study using green fluorescent protein transgenic zebrafish.” Genes Cells 16, 46-57). The fish embryos were maintained at 28.5° C. in 0.3× Danieau's solution (19.3 mM NaCl, 0.23 mM KCl, 0.13 mM MgSO4, 0.2 mM Ca(NO3)2, 1.7 mM HEPES, pH 7.0) containing 30 μg/ml phenylthiourea (PTU) to inhibit pigmentation. Tg(gstp1:GFP) cross with AB wild-type strain fluorescence embryos were used for the experiment. Zebrafish embryos were washed, dechorionated and anaesthetized before observations, and fluorescence imaging for analysis.
Transgenic zebrafish embryos at 1 day-post-fertilization (dpf) were dechorionated and placed in Petri dishes containing different chemicals diluted in 0.3× Danieau's solution containing PTU. The chemical stock was dissolved in DMSO at 5 mM concentration.
An Olympus MVX10 Fluorescence Macroscope (Olympus, Center Valley, Pa., United States of America) equipped with a Hamamatsu C9300-221 high-speed digital CCD camera (Hamamatsu City, Japan) was used for fluorescence microscopy. Tg(gstp1:GFP) fluorescent embryos were anaesthetized in tricaine and imaged at 2 dpf. MetaMorph Basic software (Olympus, Center Valley, Pa., United States of America) was used for image acquisition and analysis.
Quantification of Nrf2 Reporter Activity by Tg(gstp1:
GFP) Fluoresence in Zebrafish Model. The fluorescence intensity of the olfactory neural epithelia was quantitated using MetaMorph Basic software. In brief, GFP expression in the olfactory regions of Tg(gstp1:GFP) embryos treated with various chemicals was measured after 24-hour treatment from 1 dpf to 2 dpf. The GFP induction was detectable by fluorescence signal at the area of the olfactory epithelia in the anterior of the head region, the intensity was measured using an area of a circle of 60 pixel diameter of the fluorescence olfactory epithelia subtracted by a background non-fluorescence area next to the zebrafish embryo. Both the left and right olfactory epithelia were measured to give an average fluorescence value. The values are an average of measurements from at least 10 embryos.

[1] = Biotransformation in zebrafish embryos (cysteine conjugates, LC/MS); format: in vivo; conditions: 5 μM in incubation medium, 8 hpf to 24 hpf
Method: Fifty zebrafish embryos at the 8 hour-post-fertilization (hpf) stage were incubated at 28.5° C. in 0.3× Danieau's solution (19.3 mM NaCl, 0.23 mM KCl, 0.13 mM MgSO4, 0.2 mM Ca(NO3)2, 1.7 mM HEPES, pH 7.0) with or without 5 μM 18 and 25-27, respectively. At 24 hpf, embryos were dechorionated manually and the chorions were carefully removed one by one from the culture medium. The zebrafish embryos were harvested and kept at −80° C. till analyzed by LC/MS.
200 μL Sodium acetate buffer solution (pH 5.0) was added to 50 zebrafish embryos. Samples were homogenized for 90 s by an Omni Bead Ruptor Homogenizer (Kennesaw, Ga., United States of America). 10 μL 10% ascorbic acid and 300 μL sodium acetate buffer were added to the homogenates. The mixture was incubated in the presence of β-glucuronidase (250 U) and sulfatase (3 U) at 37° C. for 45 min, and then 600 μL MeOH with 1% acetic acid was added. The resulting mixture was vortexed for 30 s and then centrifuged at 17000 g for 10 min. The supernatant was removed and evaporated under a gentle stream of nitrogen. The residue was reconstituted in 150 μL 90% MeOH with 0.2% acetic acid (AA), and 10 μL was analyzed directly by LC/MS.
(§1) LC/MS analysis was carried out with a Thermo-Finnigan Spectra System, which consisted of an Accela high speed MS pump, an Accela refrigerated autosampler, and an LCQ Fleet ion trap mass detector (Thermo Electron, San Jose, Calif., United States of America) incorporated with an electrospray ionization (ESI) interface. A Gemini-NX C18 column (150 mm×4.6 mm i.d., 5 μm; Phenomenex, Torrance, Calif., United States of America) was used for separation at a flow rate of 0.3 mL/min. The column was eluted with 100% A (5% aqueous methanol with 0.2% formic acid) for 1 min, followed by linear increases in B (95% aqueous methanol with 0.2% formic acid) to 55% from 1 to 4 min, to 85% from 4 to 25 min, then to 100% B from 25 to 30 min, and then with 100% B from 30 to 35 min. The column was then re-equilibrated with 100% A for 5 min. The LC eluent was introduced into the ESI interface. The positive ion polarity mode was set for the ESI source with the voltage on the ESI interface maintained at approximately 4.6 kV. Nitrogen gas was used as the sheath gas and auxiliary gas. Optimized source parameters, including capillary temperature (260° C.), sheath gas flow rate (31 arbitrary units), auxiliary gas flow rate (16 units), tube lens (34 V), and capillary voltage 9 V, were tuned using authentic samples. The collision-induced dissociation (CID) was conducted with an isolation width 2 Da and normalized collision energy of 35 for MS^2. The mass range was measured from 100 to 800 m/z. Data acquisition was performed with Xcalibur version 2.0 (Thermo Electron, San Jose, Calif., United States of America).

[2] = Formation of cysteine conjugates in mice (urine, LC/MS); format: in vivo, mouse; conditions: oral gavage 200 mg/kg, urine collected in 24 h
Method: as §1, with “Optimized source parameters, including capillary temperature (260° C.), sheath gas flow rate (31 arbitrary units), auxiliary gas flow rate (16 units), tube lens (34 V), and capillary voltage 9 V, were tuned using authentic samples. The collision-induced dissociation (CID) was conducted with an isolation width 2 Da and normalized collision energy of 35 for MS^2.” left out, “Data acquisition was performed with Xcalibur version 2.0 (Thermo Electron, San Jose, Calif., United States of America).” left out
Enzymatic deconjugation of mouse urine was performed as described previously with slight modifications. […] The resulting suspension was centrifuged at 17,000 g for 5 min, and 10 μL of supernatant was analyzed directly by LC/MS.

SMILES | Ratio/CTL, Tg(gstp1:GFP) fluorescence signal (Nrf2) | other results
CCCCC/C=C/C(=O)/C=C/c1cccc(C(F)(F)F)c1F [Compound 23] | 1.63 and 1.63 ± 0.17 | –
CCCCCC(CC(=O)CCc1ccc(O)c(OC)c1)SC (centres unmarked) [Compound 8] | 1.16 ± 0.47 | –
CCCCCCC[C@H](O)CC(=O)CCc1ccc(O)c(OC)c1 [Compound 12, reference compound] | 1.65 and 1.65 ± 0.29 | –
CCCCCC=CC(O)CCc1ccc(O)c(OC)c1 (centres unmarked) [Compound 4] | 1.13 and 1.13 ± 0.21 | –
C[S+]([O-])CCCCN=C=S (centres unmarked) [SFN, sulforaphane, reference compound] | 2.03 and 2.03 ± 0.49 | –
CCCCC/C=C/C(=O)/C=C/c1ccccc1C(F)(F)F [Compound 24] | 1.55 and 1.55 ± 0.67 | –
CCCCC[C@H](O)CC(=O)CCc1ccc(O)c(OC)c1 [Compound 11, [6]-gingerol, reference compound] | 1.87 and 1.87 ± 0.51 | –
CCCCCC(CC(=O)CCc1ccc(O)c(OC)c1)SCC(N)C(=O)O (centres unmarked) [Compound 6] | 1.06 ± 0.20 | –
CCCCCCCC(O)CCc1ccc(O)c(OC)c1 (centres unmarked) [Compound 14] | 0.96 ± 0.21 | Nrf2 activation in Tg(gstp1:GFP) zebrafish embryos, in words (Nrf2): no effect at all
CCCCCC(CC(=O)CCc1ccc(O)c(OC)c1)SCC(NC(C)=O)C(=O)O (centres unmarked) [Compound 7] | 1.04 ± 0.05 | –
CCCCCCCC(=O)/C=C/c1ccc(O)c(OC)c1 [Compound 19] | 3.29 and 3.29 ± 0.35 | –
CCCCC/C=C/C(=O)CCc1ccc(O)c(OC)c1 [Compound 1, [6]-shogaol, reference compound] | 2.40 and 2.40 ± 0.54 | Ratio/CTL, Tg(gstp1:GFP) fluorescence signal (Nrf2; listed as 6S): 2.40
CCCCCC(CC(O)CCc1ccc(O)c(OC)c1)SC (centres unmarked) [Compound 17] | 0.72 ± 0.14 | –
CCCCC/C=C/C(=O)/C=C/c1ccc(O)c(OC)c1 [Compound 18] | 5.67 and 5.67 ± 0.59 | Cysteine conjugates found in zebrafish embryos [1]: conjugate 35 was predominantly present; Cysteine conjugates found in mouse urine [2]: conjugate 35 was predominantly present
CCCCC/C=C/C(=O)/C=C/c1cc(O)c(O)c(OC)c1 [Compound 20] | 1.26 and 1.26 ± 0.14 | –
CCCCCCC/C=C/C(=O)CCc1ccc(O)c(OC)c1 [Compound 2, reference compound] | 1.67 ± 0.55 | Ratio/CTL, Tg(gstp1:GFP) fluorescence signal (Nrf2; listed as 8S): 1.67
CCCCCCCC(=O)CCc1ccc(O)c(O)c1 [Compound 25] | 4.32 and 4.32 ± 0.50 | Cysteine conjugates found in zebrafish embryos [1]: conjugates 37 and 37b were exclusively identified
CCCCCCCCC/C=C/C(=O)CCc1ccc(O)c(OC)c1 [Compound 3, reference compound] | 1.53 ± 0.53 | Ratio/CTL, Tg(gstp1:GFP) fluorescence signal (Nrf2; listed as 10S): 1.53
CCCCCCCCC[C@H](O)CC(=O)CCc1ccc(O)c(OC)c1 [Compound 13, reference compound] | 1.29 and 1.29 ± 0.40 | –
CCCCCC(CC(O)CCc1ccc(O)c(OC)c1)SCC(NC(C)=O)C(=O)O (centres unmarked) [Compound 16] | 0.78 ± 0.12 | –
CCCCCC(CC(O)CCc1ccc(O)c(OC)c1)SCC(N)C(=O)O (centres unmarked) [Compound 15] | 1.08 ± 0.65 | –
CCCCCCCC(=O)CCc1ccc(O)c(OC)c1 [Compound 5] | 1.27 and 1.27 ± 0.29 | –
CCCCC/C=C/C(=O)/C=C/c1cc(OC)c(O)c(C(F)(F)F)c1 [Compound 21] | 2.18 and 2.18 ± 0.53 | –
CCCCC/C=C/C(=O)/C=C/c1cccc(C(F)(F)F)c1 [Compound 22] | 1.28 and 1.28 ± 0.10 | –
CCCCCC(CC(=O)CCc1ccc(O)c(OC)c1)OC (centres unmarked) [Compound 10] | 0.96 ± 0.24 | –
